Activity calls are given as the source filed them.
How the values were obtained:
[1] = target: T1, Endoribonuclease toxin MazF (Escherichia coli K-12, UniProt P0AE70); experiment: MazF toxin RNase activators, dose response, biochemical, fluorescence, single-stranded RNA substrate, uHTS hits (AID 588481); format: functional
T1 sequence (P0AE70 whole entry): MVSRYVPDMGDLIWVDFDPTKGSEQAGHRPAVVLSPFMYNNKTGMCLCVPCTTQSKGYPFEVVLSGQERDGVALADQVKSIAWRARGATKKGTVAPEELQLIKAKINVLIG

[2] = target: T1, Endoribonuclease toxin MazF; experiment: fluorescent RNA oligo signal without MazF, dose response, counter-screen for MazEF activator project, biochemical, fluorescence, single-stranded RNase substrate (AID 588502); format: functional
[3] = target: Intestinal-type alkaline phosphatase (Mus musculus, UniProt P24822); experiment: PubChem AID 488785; format: functional
[4] = target: T2, Alkaline phosphatase, tissue-nonspecific isozyme (Homo sapiens, UniProt P05186); experiment: TNAP enzyme inhibition by screening hits, dose response, selectivity assay for mouse IAP inhibitor project, biochemical, human TNAP, uHTS hits (AID 488906); format: functional
T2 sequence (P05186 whole entry): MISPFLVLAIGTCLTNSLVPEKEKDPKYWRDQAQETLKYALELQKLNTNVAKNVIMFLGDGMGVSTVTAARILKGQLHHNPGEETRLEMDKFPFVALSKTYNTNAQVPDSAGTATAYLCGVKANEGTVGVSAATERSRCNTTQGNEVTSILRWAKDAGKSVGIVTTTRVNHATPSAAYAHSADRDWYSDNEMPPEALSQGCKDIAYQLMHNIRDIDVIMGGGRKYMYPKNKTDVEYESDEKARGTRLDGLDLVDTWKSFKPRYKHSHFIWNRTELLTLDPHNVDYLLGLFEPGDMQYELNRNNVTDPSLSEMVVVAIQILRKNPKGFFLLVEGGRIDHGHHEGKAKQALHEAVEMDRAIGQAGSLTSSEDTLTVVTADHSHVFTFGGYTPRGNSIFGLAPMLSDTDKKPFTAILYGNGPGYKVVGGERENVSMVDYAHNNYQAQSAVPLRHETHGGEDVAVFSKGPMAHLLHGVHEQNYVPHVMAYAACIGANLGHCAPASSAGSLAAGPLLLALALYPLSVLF

[5] = target: Intestinal-type alkaline phosphatase (Homo sapiens, UniProt P09923); experiment: inhibition of human intestinal alkaline phosphatase – biochemical, dose response (AID 488876); format: functional
[6] = target: DNA (cytosine-5)-methyltransferase 1 (Homo sapiens, UniProt P26358); experiment: DNMT1 methyltransferase inhibitors, confirmation, biochemical, fluorescent molecular beacon (AID 602386); format: functional
[7] = control 3'UTR Renilla luciferase suppression, dose response, counter-screen for Shn3 inhibitor project, cell-based, Clone20-Shn3RL, cherry-picked (AID 624133); format: functional
Caspase-6 = target: T3, Caspase-6 (Homo sapiens, UniProt P55212); experiment: human caspase-6 inhibitors, dose response, biochemical, VEID-R110 fluorescence, cherry-pick (AID 720632)
T3 sequence (P55212 whole entry): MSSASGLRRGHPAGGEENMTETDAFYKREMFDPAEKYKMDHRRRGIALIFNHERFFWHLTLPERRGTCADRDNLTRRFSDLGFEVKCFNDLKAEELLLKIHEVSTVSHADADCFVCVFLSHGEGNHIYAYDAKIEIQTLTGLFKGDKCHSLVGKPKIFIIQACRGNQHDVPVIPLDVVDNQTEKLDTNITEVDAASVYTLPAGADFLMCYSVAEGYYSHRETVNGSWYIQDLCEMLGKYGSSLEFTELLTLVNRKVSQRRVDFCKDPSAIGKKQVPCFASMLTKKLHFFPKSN

[8] = target: Mitochondrial peptide methionine sulfoxide reductase (Bos taurus, UniProt P54149); format: functional;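 note: absorbance read-out, biochemical high-throughput dose-response screen for MsrA inhibitors, confirmatory; recombinant bovine MsrA coupled to E. coli TrxB with NADPH and selenocystamine; potency is for inhibitors of MsrA activity on DMSO substrate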
[9] = target: 26S proteasome non-ATPase regulatory subunit 14 (Homo sapiens, UniProt O00487); experiment: inhibition of proteasome subunit RPN11 – biochemical, fluorescence polarization, uHTS hits, confirmation (AID 602368); format: functional
[10] = target: 72 kDa type IV collagenase (Homo sapiens, UniProt P08253); experiment: Dose Response validation of uHTS RPN11 inhibitor hits using a MMP-2 Fluorescence assay.; format: functional
Prothrombin = Prothrombin (Bos taurus, UniProt P00735); experiment: thrombin inhibition, dose response, biochemical, fluorescence polarization, uHTS hits (AID 602369); format: functional
[11] = target: Voltage-dependent T-type calcium channel subunit alpha-1H (Homo sapiens, UniProt O95180); format: functional;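 note: channel activity triggered by adding a high calcium stimulation buffer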
CHO = experiment: cytotoxicity in TLR9-MyD88 CHO cells, dose response, cytotoxicity control for TLR9-MyD88 binding inhibitor project, cell-based, luminescence (AID 588339); format: functional, hamster; conditions: Cricetulus griseus;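 note: CHO cells stably coexpressing TLR9 and MyD88 fusions from primary screen; compound exposure lasted 48 hours before viability readout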
Beta Lactamase = Beta Lactamase (Pseudomonas aeruginosa, UniProt Q932Y6); experiment: beta-lactamase reporter inhibitor potency, dose response, artefact control for TLR9-MyD88 binding inhibitor project, BLA reporter cells, FRET fluorescence (AID 588341); format: cell-based;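 note: cell based assay in CHO-K1 cells stably expressing beta-lactamase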
Protein skinhead-1 = target: T4, Protein skinhead-1 (Caenorhabditis elegans, UniProt P34707); format: functional
T4 sequence (P34707 whole entry): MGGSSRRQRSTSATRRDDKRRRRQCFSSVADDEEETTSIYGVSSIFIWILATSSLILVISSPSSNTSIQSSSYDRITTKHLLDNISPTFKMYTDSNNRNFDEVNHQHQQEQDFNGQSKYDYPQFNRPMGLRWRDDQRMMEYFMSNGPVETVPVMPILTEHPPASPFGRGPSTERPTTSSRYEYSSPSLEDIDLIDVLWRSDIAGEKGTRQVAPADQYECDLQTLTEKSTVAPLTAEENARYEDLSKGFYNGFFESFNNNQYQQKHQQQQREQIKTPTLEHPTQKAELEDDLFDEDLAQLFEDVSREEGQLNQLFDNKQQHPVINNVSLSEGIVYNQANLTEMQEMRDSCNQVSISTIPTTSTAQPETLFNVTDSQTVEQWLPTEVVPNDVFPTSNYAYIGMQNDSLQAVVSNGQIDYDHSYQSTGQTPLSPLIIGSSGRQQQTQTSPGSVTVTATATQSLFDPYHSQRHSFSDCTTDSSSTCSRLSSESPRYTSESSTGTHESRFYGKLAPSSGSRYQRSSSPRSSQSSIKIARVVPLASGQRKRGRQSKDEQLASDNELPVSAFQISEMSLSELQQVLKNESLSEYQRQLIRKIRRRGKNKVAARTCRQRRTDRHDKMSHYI

Melanocortin receptor 4 = Melanocortin receptor 4 (Homo sapiens, UniProt P32245); format: functional, cell-based;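 note: Cell-based assay with luminescence read-out, confirmatory dose-response testing for agonist activity of biased ligands at MC4R; human U2OS cells with tagged receptor and beta-arrestin; potency of agonists that increase receptor coupling to beta-arrestin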
Cytochrome P450 3A4 = Cytochrome P450 3A4 (Homo sapiens, UniProt P08684);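 note: CYP3A4 tested as one member of a cytochrome P450 panel screen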
[12] = target: T5, Aryl hydrocarbon receptor (Homo sapiens, UniProt P35869); conditions: Potency;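 note: confirmatory quantitative high-throughput screen measuring activation of the AhR signaling pathway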
T5 sequence (P35869 whole entry): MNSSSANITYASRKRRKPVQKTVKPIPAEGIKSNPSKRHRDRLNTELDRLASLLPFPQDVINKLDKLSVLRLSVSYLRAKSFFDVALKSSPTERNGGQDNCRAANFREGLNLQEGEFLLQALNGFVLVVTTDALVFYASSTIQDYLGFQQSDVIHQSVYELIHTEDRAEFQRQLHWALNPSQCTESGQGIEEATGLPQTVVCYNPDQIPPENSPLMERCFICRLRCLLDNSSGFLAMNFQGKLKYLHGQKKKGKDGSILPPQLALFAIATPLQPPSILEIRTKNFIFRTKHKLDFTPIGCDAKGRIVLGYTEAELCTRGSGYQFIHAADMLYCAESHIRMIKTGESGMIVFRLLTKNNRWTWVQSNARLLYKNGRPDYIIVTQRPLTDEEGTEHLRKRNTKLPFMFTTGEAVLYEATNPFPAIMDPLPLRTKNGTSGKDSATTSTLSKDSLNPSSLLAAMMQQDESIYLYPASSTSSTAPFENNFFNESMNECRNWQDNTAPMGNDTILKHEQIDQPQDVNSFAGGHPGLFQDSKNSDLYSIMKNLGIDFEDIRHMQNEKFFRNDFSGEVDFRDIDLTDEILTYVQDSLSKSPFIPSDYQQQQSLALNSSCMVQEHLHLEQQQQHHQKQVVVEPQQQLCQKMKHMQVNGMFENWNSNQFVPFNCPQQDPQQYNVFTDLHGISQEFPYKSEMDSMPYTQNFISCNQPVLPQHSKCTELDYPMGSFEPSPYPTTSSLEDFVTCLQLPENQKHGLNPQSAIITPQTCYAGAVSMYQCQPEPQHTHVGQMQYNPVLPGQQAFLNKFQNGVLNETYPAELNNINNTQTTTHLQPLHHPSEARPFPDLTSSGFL

[13] = target: Ras and Rab interactor 1/Tyrosine-protein kinase ABL1 (Homo sapiens, UniProt P00519+Q13671); format: functional;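 note: biochemical TR-FRET dose-response test measuring inhibition of binding between Rin1 and Abl proteins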
[14] = miR-122 activators in hepatoma reporter cells, dose response, cell-based, Huh7 psiCHECK-miR122, Renilla luciferase, cherry-picked (AID 651956); format: functional;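 note: huh7 hepatoma cells stably carrying a psiCHECK-2 miR-122 sensor plasmid; renilla luciferase signal reporting endogenous miR-122 activity after 48 h compound exposure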
[15] = target: T6, Low molecular weight phosphotyrosine protein phosphatase (Homo sapiens, UniProt P24666); format: functional; conditions: read-out: IC50_Mean
T6 sequence (P24666 whole entry): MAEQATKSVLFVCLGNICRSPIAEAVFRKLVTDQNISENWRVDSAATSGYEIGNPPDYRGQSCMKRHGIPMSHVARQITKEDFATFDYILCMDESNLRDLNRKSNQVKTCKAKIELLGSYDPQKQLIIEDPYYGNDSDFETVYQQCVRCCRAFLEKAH

[16] = target: T6, Low molecular weight phosphotyrosine protein phosphatase; format: functional; conditions: read-out: IC50_Mean; remark: listed apart in the source
[17] = inhibitors of firefly luciferase expression or activity, dose response, H4 neuroglioma cells, luminescence (AID 1990); format: functional, cell-based
[18] = Luminescence Cell-Based Dose Response HTS to Identify Inhibitors of 5'UTR Stem-Loop Driven Prion Protein mRNA Translation in H4 Neuroglioblastoma Cells. [Related pubchem assays: 1827 (Project Summary), 1813 (Primary HTS)]; format: functional
[19] = inhibitors of SNCA 5'UTR-driven reporter translation, confirmation, H4 neuroglioma cells, luminescence (AID 1988); format: functional, cell-based
HEK293 = experiment: inhibitors of LMP1-driven NF-kB reporter, dose response, cell-based, HEK293, luciferase, cherry-pick (AID 588343); format: functional; conditions: Homo sapiens
[20] = inhibitors of intracellular T. cruzi replication, confirmation, NIH3T3 host cells, beta-gal luminescence (AID 2044); format: functional, cell-based;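 note: intracellular parasites grown in NIH/3T3 mouse fibroblasts as host cells; luminescent beta-galactosidase reporter signal from transgenic T. cruzi replicating inside host cells; inhibitors lower the luminescence signal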
[21] = cytotoxicity toward NIH3T3 fibroblasts, dose response, counter-screen, cell-based, ATP luminescence, mouse fibroblasts (AID 2010); format: functional;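 note: cells exposed to compound for about 90 hours before reading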
Vero = experiment: West Nile virus antiviral activity, cell-based, CPE readout (AID 1621); format: functional; conditions: Chlorocebus sabaeus
P388/ADR = experiment: cells; format: functional; conditions: Mus musculus
SN12K1 = experiment: cells; format: functional; conditions: Homo sapiens
P388 = experiment: cells; format: functional; conditions: Mus musculus

72 kDa type IV collagenase, sequence (P08253 whole entry): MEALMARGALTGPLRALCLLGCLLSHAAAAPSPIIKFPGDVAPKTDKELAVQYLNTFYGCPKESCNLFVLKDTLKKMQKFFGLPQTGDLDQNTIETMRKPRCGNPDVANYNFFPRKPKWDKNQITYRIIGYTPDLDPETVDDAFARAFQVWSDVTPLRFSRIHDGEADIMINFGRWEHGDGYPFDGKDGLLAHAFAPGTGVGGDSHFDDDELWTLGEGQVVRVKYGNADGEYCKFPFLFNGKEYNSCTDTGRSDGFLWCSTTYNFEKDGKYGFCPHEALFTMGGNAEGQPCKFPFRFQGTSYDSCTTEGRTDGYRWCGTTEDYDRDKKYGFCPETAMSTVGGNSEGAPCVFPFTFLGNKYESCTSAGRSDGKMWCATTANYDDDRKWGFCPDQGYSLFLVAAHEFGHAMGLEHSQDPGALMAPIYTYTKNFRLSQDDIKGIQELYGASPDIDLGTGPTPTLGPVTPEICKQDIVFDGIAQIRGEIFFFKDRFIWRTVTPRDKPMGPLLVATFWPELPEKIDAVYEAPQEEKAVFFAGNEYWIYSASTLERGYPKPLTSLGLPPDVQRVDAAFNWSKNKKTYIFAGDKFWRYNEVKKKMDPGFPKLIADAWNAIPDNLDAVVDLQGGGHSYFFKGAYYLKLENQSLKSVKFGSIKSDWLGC
26S proteasome non-ATPase regulatory subunit 14, sequence (O00487 whole entry): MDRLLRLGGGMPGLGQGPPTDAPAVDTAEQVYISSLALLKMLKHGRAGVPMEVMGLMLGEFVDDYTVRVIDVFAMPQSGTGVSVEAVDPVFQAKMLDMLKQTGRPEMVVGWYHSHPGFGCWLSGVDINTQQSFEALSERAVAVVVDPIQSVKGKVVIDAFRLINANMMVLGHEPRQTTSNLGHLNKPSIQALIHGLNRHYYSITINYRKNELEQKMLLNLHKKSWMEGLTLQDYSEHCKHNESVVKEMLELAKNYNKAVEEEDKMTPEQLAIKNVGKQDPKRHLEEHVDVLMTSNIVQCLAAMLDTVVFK
Melanocortin receptor 4, sequence (P32245 whole entry): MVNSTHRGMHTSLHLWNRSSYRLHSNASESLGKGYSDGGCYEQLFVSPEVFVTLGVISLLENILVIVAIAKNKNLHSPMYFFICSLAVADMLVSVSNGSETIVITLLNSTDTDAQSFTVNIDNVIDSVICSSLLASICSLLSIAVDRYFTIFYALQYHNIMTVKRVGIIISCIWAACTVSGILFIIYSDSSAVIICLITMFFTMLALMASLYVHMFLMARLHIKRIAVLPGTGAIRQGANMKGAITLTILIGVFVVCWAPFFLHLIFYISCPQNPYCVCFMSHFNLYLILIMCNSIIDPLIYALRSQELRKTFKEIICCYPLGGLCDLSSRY
Ras and Rab interactor 1/Tyrosine-protein kinase ABL1, sequence (P00519 whole entry): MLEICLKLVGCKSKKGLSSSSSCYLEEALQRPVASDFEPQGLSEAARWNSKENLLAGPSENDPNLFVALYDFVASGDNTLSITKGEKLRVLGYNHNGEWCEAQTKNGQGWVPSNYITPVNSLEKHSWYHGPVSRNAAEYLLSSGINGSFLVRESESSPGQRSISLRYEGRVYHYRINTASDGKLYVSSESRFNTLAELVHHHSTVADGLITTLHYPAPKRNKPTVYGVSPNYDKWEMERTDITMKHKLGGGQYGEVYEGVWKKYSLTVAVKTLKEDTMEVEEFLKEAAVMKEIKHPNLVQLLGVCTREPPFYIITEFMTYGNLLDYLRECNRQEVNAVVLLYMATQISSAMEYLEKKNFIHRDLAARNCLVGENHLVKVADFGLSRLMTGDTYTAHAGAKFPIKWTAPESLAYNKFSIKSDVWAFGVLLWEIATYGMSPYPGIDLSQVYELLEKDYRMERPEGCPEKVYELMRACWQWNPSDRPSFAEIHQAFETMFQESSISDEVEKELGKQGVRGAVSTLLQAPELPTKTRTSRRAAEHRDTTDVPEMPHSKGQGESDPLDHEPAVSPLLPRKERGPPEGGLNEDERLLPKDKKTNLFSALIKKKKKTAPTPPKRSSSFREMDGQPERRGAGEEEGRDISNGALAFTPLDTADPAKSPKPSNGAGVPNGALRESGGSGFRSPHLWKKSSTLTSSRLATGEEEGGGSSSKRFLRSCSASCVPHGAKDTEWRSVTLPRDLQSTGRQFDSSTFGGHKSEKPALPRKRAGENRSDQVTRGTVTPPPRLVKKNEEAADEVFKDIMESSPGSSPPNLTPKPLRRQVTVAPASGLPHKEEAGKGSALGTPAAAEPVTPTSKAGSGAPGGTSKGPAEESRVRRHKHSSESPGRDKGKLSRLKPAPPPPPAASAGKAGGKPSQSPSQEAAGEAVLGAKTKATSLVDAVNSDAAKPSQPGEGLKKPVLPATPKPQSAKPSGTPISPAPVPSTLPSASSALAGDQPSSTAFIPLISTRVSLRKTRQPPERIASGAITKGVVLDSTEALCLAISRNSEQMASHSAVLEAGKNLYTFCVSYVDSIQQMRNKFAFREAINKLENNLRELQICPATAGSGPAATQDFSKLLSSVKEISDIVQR
Ras and Rab interactor 1/Tyrosine-protein kinase ABL1, sequence (Q13671 whole entry): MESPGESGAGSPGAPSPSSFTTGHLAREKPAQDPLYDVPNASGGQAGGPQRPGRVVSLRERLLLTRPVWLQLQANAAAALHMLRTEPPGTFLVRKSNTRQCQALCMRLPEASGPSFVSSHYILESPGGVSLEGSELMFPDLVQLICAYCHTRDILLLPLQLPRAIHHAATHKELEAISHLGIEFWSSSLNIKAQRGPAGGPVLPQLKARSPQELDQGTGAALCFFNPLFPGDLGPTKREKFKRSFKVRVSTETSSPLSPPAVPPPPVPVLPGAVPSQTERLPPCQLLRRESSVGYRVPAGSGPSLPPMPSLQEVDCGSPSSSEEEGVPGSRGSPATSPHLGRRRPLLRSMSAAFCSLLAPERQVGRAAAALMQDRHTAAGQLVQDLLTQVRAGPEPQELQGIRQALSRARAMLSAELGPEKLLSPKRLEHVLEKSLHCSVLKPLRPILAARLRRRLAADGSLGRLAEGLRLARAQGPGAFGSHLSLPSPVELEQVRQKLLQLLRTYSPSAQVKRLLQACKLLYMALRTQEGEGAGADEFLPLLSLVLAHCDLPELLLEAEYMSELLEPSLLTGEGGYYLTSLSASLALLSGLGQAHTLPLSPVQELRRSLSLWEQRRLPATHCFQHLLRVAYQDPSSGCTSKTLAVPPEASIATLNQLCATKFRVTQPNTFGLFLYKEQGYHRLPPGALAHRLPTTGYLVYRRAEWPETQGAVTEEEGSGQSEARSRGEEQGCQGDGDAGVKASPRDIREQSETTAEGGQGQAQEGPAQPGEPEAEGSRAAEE
Mitochondrial peptide methionine sulfoxide reductase, sequence (P54149 whole entry): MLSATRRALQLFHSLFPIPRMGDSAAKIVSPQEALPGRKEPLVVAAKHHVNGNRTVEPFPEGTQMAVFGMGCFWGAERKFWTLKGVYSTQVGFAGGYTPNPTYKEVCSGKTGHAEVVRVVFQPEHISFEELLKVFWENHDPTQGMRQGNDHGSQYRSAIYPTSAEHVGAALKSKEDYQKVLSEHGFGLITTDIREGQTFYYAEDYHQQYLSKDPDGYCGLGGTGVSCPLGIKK
DNA (cytosine-5)-methyltransferase 1, sequence (P26358 whole entry): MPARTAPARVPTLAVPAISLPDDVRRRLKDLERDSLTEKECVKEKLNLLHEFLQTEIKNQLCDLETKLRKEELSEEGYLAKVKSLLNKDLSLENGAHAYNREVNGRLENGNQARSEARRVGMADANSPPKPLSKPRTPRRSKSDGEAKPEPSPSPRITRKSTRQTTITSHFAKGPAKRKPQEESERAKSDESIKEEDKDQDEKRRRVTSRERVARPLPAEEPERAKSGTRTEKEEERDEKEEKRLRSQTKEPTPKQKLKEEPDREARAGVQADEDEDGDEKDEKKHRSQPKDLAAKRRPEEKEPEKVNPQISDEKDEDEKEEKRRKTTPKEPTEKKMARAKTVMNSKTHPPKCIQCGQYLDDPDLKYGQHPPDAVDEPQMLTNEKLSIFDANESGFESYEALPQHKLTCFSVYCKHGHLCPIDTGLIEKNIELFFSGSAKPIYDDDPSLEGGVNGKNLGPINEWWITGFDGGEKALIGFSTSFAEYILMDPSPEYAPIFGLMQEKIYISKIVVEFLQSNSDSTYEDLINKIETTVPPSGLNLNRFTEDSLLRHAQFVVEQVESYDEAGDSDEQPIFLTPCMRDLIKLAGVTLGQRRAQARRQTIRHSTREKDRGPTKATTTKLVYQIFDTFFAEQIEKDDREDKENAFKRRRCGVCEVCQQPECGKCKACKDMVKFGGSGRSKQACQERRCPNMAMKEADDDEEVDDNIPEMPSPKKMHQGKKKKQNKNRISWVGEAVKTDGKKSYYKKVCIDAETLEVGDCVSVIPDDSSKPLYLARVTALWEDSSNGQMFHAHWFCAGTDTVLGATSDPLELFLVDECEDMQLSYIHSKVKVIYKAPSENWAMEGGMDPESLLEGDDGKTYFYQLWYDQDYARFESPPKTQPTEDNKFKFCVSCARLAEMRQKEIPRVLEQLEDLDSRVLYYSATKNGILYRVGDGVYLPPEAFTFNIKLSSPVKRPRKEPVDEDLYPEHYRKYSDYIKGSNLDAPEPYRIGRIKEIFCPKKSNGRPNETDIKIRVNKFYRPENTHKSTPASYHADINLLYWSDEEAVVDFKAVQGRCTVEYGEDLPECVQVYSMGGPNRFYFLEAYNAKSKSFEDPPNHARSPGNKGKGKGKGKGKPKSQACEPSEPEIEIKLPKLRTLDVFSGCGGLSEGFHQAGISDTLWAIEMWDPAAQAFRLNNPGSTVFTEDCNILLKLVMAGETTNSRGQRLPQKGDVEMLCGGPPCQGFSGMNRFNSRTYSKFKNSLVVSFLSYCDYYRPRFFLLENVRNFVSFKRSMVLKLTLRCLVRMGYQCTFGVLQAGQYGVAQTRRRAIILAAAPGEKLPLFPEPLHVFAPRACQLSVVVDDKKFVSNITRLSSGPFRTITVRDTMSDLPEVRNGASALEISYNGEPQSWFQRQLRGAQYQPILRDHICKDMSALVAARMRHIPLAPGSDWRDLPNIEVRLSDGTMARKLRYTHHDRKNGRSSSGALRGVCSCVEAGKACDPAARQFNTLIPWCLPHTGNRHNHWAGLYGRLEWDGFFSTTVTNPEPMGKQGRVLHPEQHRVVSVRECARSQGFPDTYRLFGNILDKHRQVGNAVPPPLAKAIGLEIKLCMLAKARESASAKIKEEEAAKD

O=C(COc1cccc(Cl)c1)N/N=C\c1cc2ccccc2nc1Cl
EC50 [1]: > 99 µM (inactive)
EC50 [2]: > 99 µM (inactive)

COc1ccc(C(=O)OCC(=O)Nc2ncc([N+](=O)[O-])s2)cc1OC
IC50 [3]: 8.79 µM (active)
IC50 [4]: 23.7 µM (active)
IC50 [5]: 72.6 µM (active)
IC50 [6]: 4.45 µM (active)
AC50 [7]: 20.8 µM (active)
AC50 (Caspase-6): 4.75 µM (active)

S=C1NC2(CCCC2)Nc2ccccc21
IC50 [8]: 53.6 µM (inactive)

CCCC/N=c1\scc(-c2ccc3c(c2)NC(=O)CO3)n1N=C1CCCC1
IC50 [9]: 26.6 µM (active)
IC50 [10]: > 100 µM (inactive)
IC50 (Prothrombin): 27.7 µM (active)

CCCN1C(=O)/C(=C/c2ccc(N3CCCC3)c(C)c2)NC1=S
EC50 [11]: 3.84 µM (active)
IC50 (CHO): 32.1 µM (inactive)
IC50 (Beta Lactamase): 6.66 µM (active)
IC50 (Protein skinhead-1): > 100 µM (inactive)

O=C(N/N=C/c1ccc(OCc2ccccc2)cc1)c1cccs1
EC50 (Melanocortin receptor 4): > 89.2 µM (inactive)
AC50 (Cytochrome P450 3A4): 39.8 µM (inconclusive)

Cc1ccc(/N=C/N(C)/C=N/c2ccc(C)cc2C)c(C)c1 [AMITRAZ]
AC50 [12]: 50.1 µM (inconclusive)

CCOc1ccc2nc(N(CCN(C)C)C(=O)c3cc4ccccc4cc3OC)sc2c1
IC50 [13]: 52 µM (inactive)
IC50 (Protein skinhead-1): > 100 µM (inactive)

CN(/N=C/C=C/c1ccccc1)c1cc(=O)n(C)c(=O)[nH]1
IC50 [8]: 155 µM (inactive)

CC(=O)C(=NNc1cc(C)ccc1O)C(C)=O
EC50 [1]: > 99 µM (inactive)
EC50 [2]: > 99 µM (inactive)

COc1cc(C(=O)Nc2ccc(S(=O)(=O)N3CCCCC3C)cc2)cc(OC)c1OC (configuration not stated)
AC50 [14]: 19.8 µM (active)

COc1cc(/C=C(\C#N)C(=O)Nc2cc(C(F)(F)F)ccc2Cl)ccc1OCC(=O)Nc1cccc(C(F)(F)F)c1
IC50 [9]: 32.5 µM (active)
IC50 [10]: > 100 µM (inactive)
IC50 (Prothrombin): 40.2 µM (active)

CON=C(C(=O)OC)c1ccccc1CO/N=C(\C)c1cccc(C(F)(F)F)c1
AC50 [12]: 63.1 µM (inconclusive)

CN(Cc1ccccc1)C(=O)c1ccc(NC(=O)Cc2ccc(NC(=O)C3CCN(C(=O)C4CCCC4)CC3)cc2)cc1
IC50 [13]: 20.7 µM (inactive)

Clc1cccc(Cl)c1Cn1cnc(NCc2ccco2)c2ncnc1-2
IC50 [15]: 9.54 µM (active)
IC50 [16]: 4.06 µM (active)

O=C(N/N=C/c1cccs1)c1[nH]nc2c1CCCC2
EC50 [17]: 8.62 µM (inconclusive)
EC50 [18]: 9.49 µM (active)
EC50 [19]: 8.52 µM (active)
AC50 (HEK293): 2.39 µM (active)

CCN1CCN(CCNC(=O)c2ccc(/C=C3\Sc4ccccc4N(Cc4ccccc4F)C3=O)cc2)CC1
EC50 [20]: 2.03 µM (active)
EC50 [21]: > 60 µM (not active)
IC50 (Vero): 22.8 µM (active)
EC50 (Melanocortin receptor 4): > 89.2 µM (inactive)

CCOc1ccc(C(=O)N/N=C/c2cc(Cl)ccc2[N+](=O)[O-])cc1
IC50 [9]: 19.3 µM (active)
IC50 [10]: > 100 µM (inactive)
IC50 (Prothrombin): 59.3 µM (active)

CC1OC(O[C@@H]2C=C3CC[C@@H]4[C@H](CC[C@]5(C)[C@@H](c6ccc(=O)oc6)CC[C@]45O)[C@@]3(C)CC2)C(O)C(OC2OC(CO)C(O)C(O)C2O)C1O (some centres not stated)
GI50 (P388/ADR): 51.3 µM (inactive)
GI50 (SN12K1): 0.025 µM (active)
GI50 (P388): 45.3 µM (inactive)

CC(=O)Nc1ccc(S(=O)(=O)Nc2ccc(S(=O)(=O)Nc3nc(C)cc(C)n3)cc2)cc1
AC50 [14]: 19.7 µM (active)

Source: ChEMBL document CHEMBL1201862, “PubChem BioAssay data set” (2004)
